Source: patent US20120225135A1 (priority 2010, published 2012)

Key:
[1] = Residual ClO2 after contact with effluents or tap water (amperometric titration); type: physicochemical; conditions: for Residual ClO2: trickling filters effluents
[2] = test system: Rotavirus SA-11, ATCC VR-899; type: cell-based; conditions: pH 9
[3] = test system: Streptococcus; experiment: Disinfection of effluents, streptococcus; type: cell-based; conditions: trickling filters effluents
[4] = test system: Fecal Coli; experiment: Disinfection of effluents, fecal coli; type: cell-based; conditions: for Fecal Coli: ClO2 dose 9.86 mg/L, 30 minutes; for Fecal Coli EC Media per 100 mL: trickling filters effluents
[5] = test system: Escherichia coli, ATCC 11229; type: cell-based; conditions: pH 5
[6] = test system: Total microbio counts
[7] = test system: Saccharomyces diastaticus (70 percent sporulated); experiment: Microbiological effectiveness at cold temperatures; type: cell-based
[8] = test system: Cryptosporidium parvum oocysts; conditions: in vivo
[9] = test system: E-Coli Phage; experiment: Disinfection of effluents, E. coli phage; type: cell-based; conditions: ClO2 dose 9.86 mg/L, 30 minutes
[10] = test system: Total Coliform; experiment: Disinfection of effluents, total coliforms; type: cell-based; conditions: for Total Coliforms: effluents, ClO2 dose 9.86 mg/L, 30 minutes; for Total Coliform per 100 mL: trickling filters effluents
[11] = test system: Lactobacillus frigidus; experiment: Microbiological effectiveness at cold temperatures; type: cell-based
[12] = ClO2 dose 2.7 mg/L, contact time 5 min
[13] = ClO2 dose 2.7 mg/L, contact time 20 min
[14] = ClO2 dose 10.8 mg/L, contact time 5 min
[15] = ClO2 dose 10.8 mg/L, contact time 20 min
[16] = ClO2 dose 2.7 mg/L, contact time 35 min
[17] = ClO2 dose 5.0 mg/L, contact time 15 min

For `[O][Cl+][O-]` [Chlorine Dioxide, chlorine dioxide], the ClO2 residual ([1]; effluents, dose 37.5 mg/L, 20 minutes, pH initial 5.0, final 4.95) was 26.88 mg/L as ClO2, the ClO2 residual ([1]; effluents, dose 37.5 mg/L, 20 minutes, pH initial 6.0, final 6.05) was 24.20 mg/L as ClO2 and the ClO2 residual ([1]; effluents, dose 37.5 mg/L, 20 minutes, pH initial 7.5, final 7.3) was 25.27 mg/L as ClO2. The ClO2 residual ([1]; effluents, dose 37.5 mg/L, 20 minutes, pH initial 9, final 8.8) was 15.13 mg/L as ClO2, the ClO2 residual ([1]; effluents, dose 37.5 mg/L, 20 minutes, pH initial 10, final 9.8) was 5.23 mg/L as ClO2 and the ClO2 residual ([1]; tap water with ammonium ion, nitrites, nitrates, neutral pH, dose 19.2 mg/L, 10 min) was 0 mg/L as ClO2. It also gave a ClO2 residual ([1]; tap water with ammonium ion, nitrites, nitrates, neutral pH, dose 19.2 mg/L, 30 min) of 0 mg/L as ClO2, a ClO2 residual ([1]; tap water with ammonium ion, nitrites, nitrates, neutral pH, dose 19.2 mg/L, 1 hr) of 0.07 mg/L as ClO2 and a ClO2 residual ([1]; tap water with ammonium ion, nitrites, nitrates, neutral pH, dose 19.2 mg/L, 3 hrs) of 0.03 mg/L as ClO2. The ClO2 residual ([1]; tap water with ammonium ion, nitrites, nitrates, neutral pH, dose 19.2 mg/L, 24 hrs) was 0.08 mg/L as ClO2, the “Residual ClO2” value ([1]; dose 2.7 mg/L, contact time 5 min) was 0 mg/L as ClO2 and the “Residual ClO2” value ([1]; dose 2.7 mg/L, contact time 20 min) was 0 mg/L as ClO2. The “Residual ClO2” value ([1]; dose 2.7 mg/L, contact time 35 min) was 0 mg/L as ClO2, the “Residual ClO2” value ([1]; dose 7.8 mg/L, contact time 5 min) was 1.28 mg/L as ClO2 and the “Residual ClO2” value ([1]; dose 7.8 mg/L, contact time 20 min) was 1.03 mg/L as ClO2. For the same molecule, the “Residual ClO2” value ([1]; dose 7.8 mg/L, contact time 35 min) was 0.84 mg/L as ClO2, the “Residual ClO2” value ([1]; dose 10.8 mg/L, contact time 5 min) was 3.10 mg/L as ClO2 and the “Residual ClO2” value ([1]; dose 10.8 mg/L, contact time 20 min) was 2.17 mg/L as ClO2. For the same molecule, the “Residual ClO2” value ([1]; dose 10.8 mg/L, contact time 35 min) was 2.07 mg/L as ClO2, the reduction in titer [2] was over 4 log 10 and the “Streptococcus per 100 mL” value [3, 12] was 8.4 × 10^7 per 100 mL. For the same molecule, the “Streptococcus per 100 mL” value [3, 13] was 2.4 × 10^7 per 100 mL, the “Streptococcus per 100 mL” value [3, 14] was 2.7 × 10^5 per 100 mL and the “Streptococcus per 100 mL” value [3, 15] was 8.0 × 10^3 per 100 mL. The “Fecal Coli” value ([4]; effluents, pH initial 4.6, final 4.4) was 2 MPN per 100 ml, the “Fecal Coli” value ([4]; effluents, pH initial 5.5, final 5.6) was 2 MPN per 100 ml and the “Fecal Coli” value ([4]; effluents, pH initial 6.5, final 6.7) was 0 MPN per 100 ml. The “Fecal Coli” value ([4]; effluents, pH initial 7.5, final 7.6) was 1.8 MPN per 100 ml, the “Fecal Coli” value ([4]; effluents, pH initial 8.2, final 8.1) was 23 MPN per 100 ml and the “Fecal Coli” value ([4]; effluents, pH initial 9.1, final 9.2) was 2.7 × 10^2 MPN per 100 ml. The “Fecal Coli” value ([4]; effluents, pH initial 10.0, final 10.0) was 1.3 × 10^4 MPN per 100 ml, the “kill of fecal coli” value ([4]; effluents, dose 2.7 mg/L ClO2, 30 min. contact time) was 98.9% and the “fecal coli organisms survived” value ([4]; effluents, dose 10.8 mg/L ClO2, 30 min. contact time) was “two”. The “Fecal Coli EC Media per 100 mL” value [4, 12] was 2.4 × 10^7 per 100 mL, the “Fecal Coli EC Media per 100 mL” value [4, 13] was 1.3 × 10^7 per 100 mL and the “Fecal Coli EC Media per 100 mL” value [4, 16] was 3.5 × 10^5 per 100 mL. For the same molecule, the “Fecal Coli EC Media per 100 mL” value [4, 17] was 2.4 × 10^6 per 100 mL, the “Fecal Coli EC Media per 100 mL” value [4, 14] was 9.2 × 10^2 per 100 mL and the “Fecal Coli EC Media per 100 mL” value [4, 15] was 14 per 100 mL. The “Fecal Coli EC Media per 100 mL” value ([4]; ClO2 dose 10.8 mg/L, contact time 35 min) was 2 per 100 mL, the reduction in titer [5] was over 6 log 10 and the Total microbio counts [6] was 1-5 organisms/ml. For the same molecule, the “Deactivation (%)” value [7] was 99.999%, the “reduction of infectivity for mice” value [8] was over 3 log 10 and the “E-Coli Phage” value ([9]; pH initial 4.6, final 4.4) was 0 MPN per 100 ml. For the same molecule, the “E-Coli Phage” value ([9]; pH initial 5.5, final 5.6) was 0 MPN per 100 ml, the “E-Coli Phage” value ([9]; pH initial 6.5, final 6.7) was 0 MPN per 100 ml and the “E-Coli Phage” value ([9]; pH initial 7.5, final 7.6) was 0 MPN per 100 ml. The “E-Coli Phage” value ([9]; pH initial 8.2, final 8.1) was 2 MPN per 100 ml, the “E-Coli Phage” value ([9]; pH initial 9.1, final 9.2) was 79 MPN per 100 ml and the “E-Coli Phage” value ([9]; pH initial 10.0, final 10.0) was 79 MPN per 100 ml. For the same molecule, the “Total Coliforms” value ([10]; pH initial 4.6, final 4.4) was 4.5 MPN per 100 ml, the “Total Coliforms” value ([10]; pH initial 5.5, final 5.6) was 7.8 MPN per 100 ml and the “Total Coliforms” value ([10]; pH initial 6.5, final 6.7) was 7.8 MPN per 100 ml. The “Total Coliforms” value ([10]; pH initial 7.5, final 7.6) was 49 MPN per 100 ml, the “Total Coliforms” value ([10]; pH initial 8.2, final 8.1) was 4.6 × 10^2 MPN per 100 ml and the “Total Coliforms” value ([10]; pH initial 9.1, final 9.2) was 5.4 × 10^3 MPN per 100 ml. For the same molecule, the “Total Coliforms” value ([10]; pH initial 10.0, final 10.0) was 2.4 × 10^4 MPN per 100 ml, the “Total Coliform per 100 mL” value [10, 12] was 2.4 × 10^7 per 100 mL and the “Total Coliform per 100 mL” value [10, 13] was 1.3 × 10^7 per 100 mL. The “Total Coliform per 100 mL” value [10, 16] was 2.4 × 10^6 per 100 mL, the “Total Coliform per 100 mL” value [10, 17] was 2.4 × 10^6 per 100 mL and the “Total Coliform per 100 mL” value ([10]; ClO2 dose 5.0 mg/L, contact time 30 min) was 7.9 × 10^3 per 100 mL. For the same molecule, the “Total Coliform per 100 mL” value ([10]; ClO2 dose 5.0 mg/L, contact time 45 min) was 2.4 × 10^3 per 100 mL, the “Total Coliform per 100 mL” value [10, 14] was 1.3 × 10^3 per 100 mL and the “Total Coliform per 100 mL” value [10, 15] was 3.3 × 10^2 per 100 mL. For the same molecule, the “Deactivation (%)” value [11] was 99.999%.
